Source: paper PMC10893103, “Cyclodextrin-Enabled Enantioselective Complexation Study of Cathinone Analogs” (Molecules, 2024)

Experiment: Affinity capillary electrophoresis (ACE), pH 7.4
Details: 30 mM phosphate buffer pH 7.4, 25 °C, 15 kV
Text: To assess the CD complex formation capability of the five cathinone derivatives, we devised a screening ACE method tailored to closely mimic physiological conditions. In a preliminary study, the ACE conditions were optimized regarding the type, pH, and concentration of the background electrolyte, the applied voltage, and the injection parameters. […] In order to avoid high Joule heat generation, sufficiently low voltage should be used; thus, after registering the Ohm plot (I-U plot), it was set to 15 kV. Throughout our ACE measurements, corrections for viscosity and ionic strength were systematically implemented to ensure precise determination of complex stability constants.
The CE experiments were performed on a HP ^3DCE and on an Agilent 7100 instrument (Agilent Technologies, Waldbronn, Germany) equipped with a photodiode array detector and the Chemstation software for data handling. Untreated fused silica capillaries (50 µm id, 48.5 cm total, 40 cm effective length) were purchased from Agilent. Conditioning of new capillary was conducted by flushing with 1 M NaOH followed by 0.1 M NaOH and water for 30 min each. Prior to all runs, the capillary was preconditioned by rinsing with BGE (2 min). The temperature of the capillary was set to 25 °C. UV detection was performed at 215 nm, and 15–25 kV voltage was applied. Samples were injected hydrodynamically (150 mbar·sec, optimized in the 50–500 mbar·sec range). The CE-pH measurements were carried out applying 25 kV voltage and 200 mbar·sec injection.
The background electrolyte of the CE-pH measurements contained 25 mM Na2HPO4 and 25 mM Na2B4O7, and the appropriate pH was adjusted with hydrochloric acid. During the ACE measurements, 30 mM phosphate buffer pH 7.4 (30 mM Na2HPO4—NaOH) was used. The running buffer was 20 mM acetic acid adjusting with 1 M Tris the pH to 4.5 during the chiral screening experiments. The BGEs contained CDs at various concentrations (0.25–20 mM) in the ACE experiments and 1-5-10 mM in the chiral method optimization experiments.
Stock solutions of each cathinone analog (mephedrone, flephedrone, 4-MEC, butylone, and MDPV) were prepared separately in methanol (1 mg/ml), and appropriate dilutions with water were used to prepare sample solutions for the CE-pH titration and for the ACE studies applying DMSO as EOF marker, while their mixture was used during the chiral separation studies.
The simplest way to determine the mobility is from the migration times (tmax) read from the electropherograms from which the apparent mobility could be calculated, but more accurate mobility values could be obtained by the determination with the Haarhoff–van der Linde (HVL) function based on Equation (2). (2) HVLδ(t;a0,a1,a2,a3δ)=a0/a2a3δ2πexp[−1/2(t−a1/a2)^2]/1/exp(a3δ)−1+1/2[1+erf(t−a1/2a2)] where a0 is the area of the HVL function, a1 is the position of the Gaussian component, a2 is the standard deviation of the Gaussian component, and a3δ is the peak shape distortion. The application of the HVL function is necessary in the case of accurate ACE measurements because, in several cases, the peaks are distorted due to the complex formation, which makes reading the migration times and calculating the mobility more difficult and imprecise.
The most popular technique for quantifying the analyte–ligand interaction with CE is mobility shift ACE.

| Molecule | 4-MEC–CD complex stability constant, Kstab2 (second migrating enantiomer) | 4-MEC–CD complex stability constant, Kstab/Kstab1 (unresolved or first migrating enantiomer) | Flephedrone–CD complex stability constant, Kstab2 (second migrating enantiomer) | Flephedrone–CD complex stability constant, Kstab/Kstab1 (unresolved or first migrating enantiomer) | Mephedrone–CD complex stability constant, Kstab2 (second migrating enantiomer) | Mephedrone–CD complex stability constant, Kstab/Kstab1 (unresolved or first migrating enantiomer) | Butylone–CD complex stability constant, Kstab/Kstab1 (unresolved or first migrating enantiomer) | Butylone–CD complex stability constant, Kstab2 (second migrating enantiomer) | MDPV–CD complex stability constant, Kstab2 (second migrating enantiomer) | MDPV–CD complex stability constant, Kstab/Kstab1 (unresolved or first migrating enantiomer) |
| --- | --- | --- | --- | --- | --- | --- | --- | --- | --- | --- |
| sulfobutyl-ether-β-CD [SBE-β-CD (DS~6.5)] | 660 ± 35 M⁻¹ | 560 ± 35 M⁻¹ | 200 ± 12 M⁻¹ | 200 ± 20 M⁻¹ | 500 ± 40 M⁻¹ | 500 ± 20 M⁻¹ |  |  |  |  |
| sulfopropylated-β-CD [SP-β-CD (DS~2)] |  | 440 ± 25 M⁻¹ |  | 140 ± 12 M⁻¹ |  | 390 ± 20 M⁻¹ | 710 ± 45 M⁻¹ |  |  |  |
| sulfated-β-CD [S-β-CD] |  |  |  | 860 ± 100 M⁻¹ |  |  |  |  |  |  |
| dimethylated-β-CD [DIME-β-CD] | 270 ± 25 M⁻¹ | 210 ± 20 M⁻¹ |  | 60 ± 6 M⁻¹ |  | 150 ± 15 M⁻¹ |  |  |  |  |
| CO[C@@H]1[C@@H](OC)[C@H]2O[C@H]3[C@H](OC)[C@@H](OC)[C@@H](O[C@H]4[C@H](OC)[C@@H](OC)[C@@H](O[C@H]5[C@H](OC)[C@@H](OC)[C@@H](O[C@H]6[C@H](OC)[C@@H](OC)[C@@H](O[C@H]7[C@H](OC)[C@@H](OC)[C@@H](O[C@H]8[C@H](OC)[C@@H](OC)[C@@H](O[C@H]9[C@H](OC)[C@@H](OC)[C@@H](O[C@@H]1[C@@H](COS(=O)(=O)O)O2)O[C@@H]9COS(=O)(=O)O)O[C@@H]8COS(=O)(=O)O)O[C@@H]7COS(=O)(=O)O)O[C@@H]6COS(=O)(=O)O)O[C@@H]5COS(=O)(=O)O)O[C@@H]4COS(=O)(=O)O)O[C@@H]3COS(=O)(=O)O [ODMS-γ-CD, octakis-(2,3-O-dimethyl, 6-O-sulfo)-γ-CD] | 125 ± 20 M⁻¹ | 110 ± 15 M⁻¹ | 70 ± 10 M⁻¹ | 90 ± 20 M⁻¹ | 140 ± 20 M⁻¹ | 200 ± 35 M⁻¹ | 145 ± 15 M⁻¹ | 165 ± 25 M⁻¹ | 110 ± 45 M⁻¹ | 105 ± 7 M⁻¹ |
| NC[C@H]1O[C@@H]2O[C@H]3[C@H](O)[C@@H](O)[C@@H](O[C@H]4[C@H](O)[C@@H](O)[C@@H](O[C@H]5[C@H](O)[C@@H](O)[C@@H](O[C@H]6[C@H](O)[C@@H](O)[C@@H](O[C@H]7[C@H](O)[C@@H](O)[C@@H](O[C@H]8[C@H](O)[C@@H](O)[C@@H](O[C@H]1[C@H](O)[C@H]2O)O[C@@H]8CO)O[C@@H]7CO)O[C@@H]6CO)O[C@@H]5CO)O[C@@H]4CO)O[C@@H]3CO [MA-β-CD, mono-(6-N-amino-6-deoxy)-β-CD] |  | 180 ± 40 M⁻¹ |  | 425 ± 80 M⁻¹ |  | 225 ± 35 M⁻¹ | 140 ± 25 M⁻¹ | 340 ± 50 M⁻¹ | 200 ± 30 M⁻¹ | 350 ± 60 M⁻¹ |
| sulfobutyl-ether-β-CD [SBE-β-CD (DS~4)] | 550 ± 40 M⁻¹ | 560 ± 60 M⁻¹ |  | 175 ± 25 M⁻¹ | 325 ± 60 M⁻¹ | 300 ± 60 M⁻¹ |  |  |  |  |
| hydroxypropylated-γ-CD [HP-γ-CD] |  | 40 ± 4 M⁻¹ |  | 220 ± 35 M⁻¹ |  | 25 ± 3 M⁻¹ | 40 ± 5 M⁻¹ |  |  | 50 ± 10 M⁻¹ |
| sulfo(2-hydroxy)propylated-γ-CD [SHP-γ-CD] | 25 ± 5 M⁻¹ | 30 ± 7 M⁻¹ |  | 45 ± 80 M⁻¹ | < 10 M⁻¹ | 15 ± 5 M⁻¹ | 30 ± 5 M⁻¹ | 70 ± 7 M⁻¹ |  |  |
| carboxymethylated-γ-CD [CM-γ-CD] | 70 ± 10 M⁻¹ | 65 ± 8 M⁻¹ | 30 ± 5 M⁻¹ | 50 ± 9 M⁻¹ | 60 ± 10 M⁻¹ | 50 ± 8 M⁻¹ | 140 ± 10 M⁻¹ | 170 ± 10 M⁻¹ | 170 ± 17 M⁻¹ | 160 ± 15 M⁻¹ |
| carboxymethylated-α-CD [CM-α-CD] | 150 ± 15 M⁻¹ | 150 ± 15 M⁻¹ | 90 ± 15 M⁻¹ | 75 ± 9 M⁻¹ | 110 ± 20 M⁻¹ | 90 ± 20 M⁻¹ | 110 ± 12 M⁻¹ | 90 ± 12 M⁻¹ | 340 ± 20 M⁻¹ | 240 ± 20 M⁻¹ |
| C[N+]1(C[C@H]2O[C@@H]3O[C@H]4[C@H](O)[C@@H](O)[C@@H](O[C@H]5[C@H](O)[C@@H](O)[C@@H](O[C@H]6[C@H](O)[C@@H](O)[C@@H](O[C@H]7[C@H](O)[C@@H](O)[C@@H](O[C@H]8[C@H](O)[C@@H](O)[C@@H](O[C@H]9[C@H](O)[C@@H](O)[C@@H](O[C@H]2[C@H](O)[C@H]3O)O[C@@H]9CO)O[C@@H]8CO)O[C@@H]7CO)O[C@@H]6CO)O[C@@H]5CO)O[C@@H]4CO)CCCCC1 [MePIP-β-CD, mono-6^A-(N-methyl-piperidine)-β-CD] |  | 50 ± 5 M⁻¹ |  | 40 ± 3 M⁻¹ |  | 45 ± 5 M⁻¹ | 40 ± 3 M⁻¹ |  |  | 85 ± 5 M⁻¹ |
